Where “and” joins values, the source holds several entries; their conditions need not be identical. Equal values may be shown once. Inconclusive results and toxic doses are left out.
Test system: P388 leukemia ip, CD2F1 mice, survival T/C
Assay: NCI In Vivo Anticancer Drug Screen. Data for tumor model P388 Leukemia (intraperitoneal) in CD2F1 (CDF1) mice
Conditions: endpoint: median survival time, higher = longer survival
Method in brief: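 Mice carrying the transplanted tumor received test compound or vehicle. Survival was recorded in each group, and the value is the treated-group measurement divided by that of the vehicle-treated control group.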

[1] = dose: 50.0 mg/kg/injection, schedule: Q01DX005 (ip), vehicle: saline
[2] = dose: 100.0 mg/kg/injection, schedule: Q01DX005 (ip), vehicle: saline
[3] = dose: 25.0 mg/kg/injection, schedule: Q01DX005 (ip), vehicle: saline with Tween-80
[4] = dose: 50.0 mg/kg/injection, schedule: Q01DX005 (ip), vehicle: saline with Tween-80
[5] = dose: 100.0 mg/kg/injection, schedule: Q01DX005 (ip), vehicle: saline with Tween-80
[6] = dose: 200.0 mg/kg/injection, schedule: Q01DX005 (ip), vehicle: saline with Tween-80
[7] = dose: 50.0 mg/kg/injection, schedule: Q01DX009 (ip), vehicle: saline with Tween-80
[8] = dose: 100.0 mg/kg/injection, schedule: Q01DX009 (ip), vehicle: saline with Tween-80
[9] = dose: 200.0 mg/kg/injection, schedule: Q01DX009 (ip), vehicle: saline with Tween-80
[10] = dose: 50.0 mg/kg/injection, schedule: Q01DX009 (ip), vehicle: saline
[11] = dose: 100.0 mg/kg/injection, schedule: Q01DX009 (ip), vehicle: saline

## O=C1CSCC(=O)OCCOCCSCCOCCO1
dose: 100.0 mg/kg/injection, schedule: Q04DX003 (ip), vehicle: suspension in saline
  T/C: 92 % of control
dose: 200.0 mg/kg/injection, schedule: Q04DX003 (ip), vehicle: suspension in saline
  T/C: 99 % of control
dose: 400.0 mg/kg/injection, schedule: Q04DX003 (ip), vehicle: suspension in saline
  T/C: 101 % of control

## CNC1C(O)C2Oc3c(cc(O)c4c3C(=O)c3cc5c(c(O)c3C4=O)C(OC)CC(C)(O)C5)C(C)(O2)C1O (stereo unspecified)
dose: 0.62 mg/kg/injection, schedule: Q01DX009 (ip), vehicle: saline
  T/C: 151 % of control
dose: 1.25 mg/kg/injection, schedule: Q01DX009 (ip), vehicle: saline
  T/C: 173 % of control
dose: 2.5 mg/kg/injection, schedule: Q01DX009 (ip), vehicle: saline
  T/C: 115 % of control

## CC(C)(CO)N(CCO)CCO
[1]
  T/C: 106 % of control
[2]
  T/C: 106 % of control
dose: 200.0 mg/kg/injection, schedule: Q01DX005 (ip), vehicle: saline
  T/C: 106 % of control

## O=C1CCNC(=O)N1OS(=O)(=O)c1ccccc1
dose: 50.0 mg/kg/injection, schedule: Q01DX009 (ip), vehicle: Klucel (hydroxypropylcellulose) (HPC)
  T/C: 86 % of control

## Cc1nc2c(=O)nc3n(c2nc1C)CCS3
dose: 100.0 mg/kg/injection, schedule: Q01DX001 (ip), vehicle: saline
  T/C: 104 % of control
dose: 200.0 mg/kg/injection, schedule: Q01DX001 (ip), vehicle: saline
  T/C: 102 % of control
dose: 400.0 mg/kg/injection, schedule: Q01DX001 (ip), vehicle: saline
  T/C: 104 % of control

## Nc1nc2c(ncn2C2OC(CO)C(O)C2O)c(=O)[nH]1.[Cl-].[Cl-].[NH2-].[NH2-].[Pt+4] (stereo unspecified)
dose: 2.0 mg/kg/injection, schedule: Q01DX009 (ip), vehicle: saline
  T/C: 118 % of control
dose: 4.0 mg/kg/injection, schedule: Q01DX009 (ip), vehicle: saline
  T/C: 122 % of control
dose: 8.0 mg/kg/injection, schedule: Q01DX009 (ip), vehicle: saline
  T/C: 172 % of control and 178 % of control
dose: 16.0 mg/kg/injection, schedule: Q01DX009 (ip), vehicle: saline
  T/C: 216 % of control and 238 % of control
dose: 32.0 mg/kg/injection, schedule: Q01DX009 (ip), vehicle: saline
  T/C: 93 % of control

## O=[N+]([O-])c1ccc2nc3ccccc3cc2c1
dose: 50.0 mg/kg/injection, schedule: Q04DX003 (ip), vehicle: saline
  T/C: 112 % of control
dose: 100.0 mg/kg/injection, schedule: Q04DX003 (ip), vehicle: saline
  T/C: 96 % of control
dose: 200.0 mg/kg/injection, schedule: Q04DX003 (ip), vehicle: saline
  T/C: 96 % of control
dose: 400.0 mg/kg/injection, schedule: Q04DX003 (ip), vehicle: saline
  T/C: 93 % of control

## CC(=O)OCC1OC(CC(=O)c2ccccc2)C=CC1OC(C)=O (stereo unspecified)
[3]
  T/C: 99 % of control
[4]
  T/C: 102 % of control and 101 % of control
[5]
  T/C: 100 % of control and 106 % of control
[6]
  T/C: 97 % of control and 106 % of control

## CC(=O)OC1C2CC(Cl)C1C2 (stereo unspecified)
[7]
  T/C: 100 % of control
[8]
  T/C: 109 % of control
[9]
  T/C: 105 % of control

## Cc1ccc(C)c(Nc2ccccc2[N+](=O)[O-])c1
[7]
  T/C: 103 % of control
[8]
  T/C: 108 % of control
[9]
  T/C: 100 % of control
dose: 400.0 mg/kg/injection, schedule: Q01DX009 (ip), vehicle: saline with Tween-80
  T/C: 112 % of control

## CCOC(=O)C/C(C)=N\N(C)C(N)=O
[10]
  T/C: 91 % of control
[11]
  T/C: 94 % of control

## CC1CP(c2ccccc2)(c2ccccc2)(c2ccccc2)OC1(C(=O)c1ccccc1)c1ccccc1 (stereo unspecified)
dose: 6.25 mg/kg/injection, schedule: Q01DX009 (ip), vehicle: saline with Tween-80
  T/C: 100 % of control
dose: 25.0 mg/kg/injection, schedule: Q01DX009 (ip), vehicle: saline with Tween-80
  T/C: 88 % of control

## COc1cc(C)c(O)c(C/C=C(\C)CC2=C[C@@]3(C)CCC[C@@]3(C)[C@]3(CC(O)C(C)(C)O3)O2)c1 (stereo partly specified)
dose: 20.0 mg/kg/injection, schedule: Q01DX005 (ip), vehicle: saline with Tween-80
  T/C: 98 % of control
dose: 40.0 mg/kg/injection, schedule: Q01DX005 (ip), vehicle: saline with Tween-80
  T/C: 100 % of control
dose: 80.0 mg/kg/injection, schedule: Q01DX005 (ip), vehicle: saline with Tween-80
  T/C: 119 % of control

## O=NC1C2CCC(C2)C1N=O.[Co].[c-]1[c-][c-][cH-][c-]1 (stereo unspecified)
dose: 12.5 mg/kg/injection, schedule: Q01DX005 (ip), vehicle: saline with Tween-80
  T/C: 96 % of control
[3]
  T/C: 98 % of control
[4]
  T/C: 98 % of control and 92 % of control

## O=COCC(C(=O)O)c1ccccc1 (stereo unspecified)
[4]
  T/C: 102 % of control
[5]
  T/C: 94 % of control
[6]
  T/C: 95 % of control

## CC[Si](/C=C(/C)C(C)(C)C)(CC)CC
[7]
  T/C: 94 % of control
[8]
  T/C: 96 % of control
[9]
  T/C: 113 % of control

## CC1=N[N+](C)(C)C([O-])=C1C
[4]
  T/C: 103 % of control
[5]
  T/C: 97 % of control
[6]
  T/C: 100 % of control

## NCCc1ccc(O)c(O)c1
dose: 1.5 mg/kg/injection, schedule: Q01DX009 (ip), vehicle: saline
  T/C: 100 % of control and 96 % of control
dose: 15.0 mg/kg/injection, schedule: Q01DX009 (ip), vehicle: saline
  T/C: 99 % of control and 100 % of control
dose: 25.0 mg/kg/injection, schedule: Q01DX009 (ip), vehicle: saline
  T/C: 108 % of control
dose: 50.0 mg/kg/injection, schedule: Q01DX009 (ip), vehicle: other
  T/C: 101 % of control
[10]
  T/C: 107 % of control and 108 % of control
dose: 100.0 mg/kg/injection, schedule: Q01DX009 (ip), vehicle: other
  T/C: 83 % of control
[11]
  T/C: 101 % of control and 108 % of control
dose: 150.0 mg/kg/injection, schedule: Q01DX009 (ip), vehicle: saline
  T/C: 123 % of control
dose: 200.0 mg/kg/injection, schedule: Q01DX009 (ip), vehicle: other
  T/C: 90 % of control
dose: 200.0 mg/kg/injection, schedule: Q01DX009 (ip), vehicle: saline
  T/C: 112 % of control and 115 % of control
dose: 300.0 mg/kg/injection, schedule: Q01DX009 (ip), vehicle: saline
  T/C: 92 % of control
dose: 400.0 mg/kg/injection, schedule: Q01DX009 (ip), vehicle: other
  T/C: 83 % of control
dose: 400.0 mg/kg/injection, schedule: Q01DX009 (ip), vehicle: saline
  T/C: 99 % of control and 121 % of control
dose: 600.0 mg/kg/injection, schedule: Q01DX009 (ip), vehicle: saline
  T/C: 153 % of control

## C=CCC(C=C=CCN(C)C)CO (stereo unspecified)
[1]
  T/C: 103 % of control
[2]
  T/C: 104 % of control

## COc1cccc(NC2=NCCS2)c1
[4]
  T/C: 102 % of control
[5]
  T/C: 105 % of control
[6]
  T/C: 98 % of control

## COc1ccc(C(=O)N=C(N)n2nc(C)cc2C)cc1
dose: 100.0 mg/kg/injection, schedule: Q04DX003 (ip), vehicle: Klucel (hydroxypropylcellulose) (HPC)
  T/C: 90 % of control
dose: 200.0 mg/kg/injection, schedule: Q04DX003 (ip), vehicle: Klucel (hydroxypropylcellulose) (HPC)
  T/C: 101 % of control
dose: 400.0 mg/kg/injection, schedule: Q04DX003 (ip), vehicle: Klucel (hydroxypropylcellulose) (HPC)
  T/C: 94 % of control

## N=C(N)SC1C=C(O)C=C(c2c(O)c(=O)oc3ccccc23)C1=O (stereo unspecified)
[4]
  T/C: 104 % of control
[5]
  T/C: 103 % of control
[6]
  T/C: 88 % of control

## CN(Cc1cnc2nc(N)nc(N)c2n1)c1c(Cl)cc(C(=O)NC(CCC(=O)O)C(=O)O)cc1Cl (stereo unspecified)
dose: 25.0 mg/kg/injection, schedule: Q01DX005 (ip), vehicle: suspension in saline
  T/C: 158 % of control
dose: 25.0 mg/kg/injection, schedule: Q01DX005 (iv), vehicle: suspension in saline
  T/C: 119 % of control
dose: 50.0 mg/kg/injection, schedule: Q01DX005 (ip), vehicle: suspension in saline
  T/C: 169 % of control
dose: 100.0 mg/kg/injection, schedule: Q01DX005 (ip), vehicle: suspension in saline
  T/C: 178 % of control
dose: 100.0 mg/kg/injection, schedule: Q01DX005 (iv), vehicle: suspension in saline
  T/C: 165 % of control
dose: 100.0 mg/kg/injection, schedule: Q04DX003 (ip), vehicle: saline with Tween-80
  T/C: 195 % of control
dose: 200.0 mg/kg/injection, schedule: Q01DX005 (ip), vehicle: suspension in saline
  T/C: 190 % of control
dose: 200.0 mg/kg/injection, schedule: Q04DX003 (ip), vehicle: saline with Tween-80
  T/C: 222 % of control
dose: 264.0 mg/kg/injection, schedule: Q04DX003 (ip), vehicle: saline with Tween-80
  T/C: 245 % of control
dose: 400.0 mg/kg/injection, schedule: Q04DX003 (ip), vehicle: saline with Tween-80
  T/C: 109 % of control and 240 % of control
dose: 600.0 mg/kg/injection, schedule: Q04DX003 (ip), vehicle: saline with Tween-80
  T/C: 259 % of control

## O=C(Nc1ccccc1)OCC[N+](CCO)(CCO)CCO
dose: 60.0 mg/kg/injection, schedule: Q01DX005 (ip), vehicle: water
  T/C: 100 % of control
dose: 120.0 mg/kg/injection, schedule: Q01DX005 (ip), vehicle: water
  T/C: 100 % of control
dose: 240.0 mg/kg/injection, schedule: Q01DX005 (ip), vehicle: water
  T/C: 99 % of control
